One test deals with rabbits with normal IOP. The conditions noted are these: cited from earlier work.
Another test deals with Japanese white rabbits. Briefly: Ocular hypotensive effect (IOP change from initial IOP) after instillation, alone or in combination. The class given is in vivo. The conditions noted are these: FIG. 2; single drug treatment groups; instillation 50 μL, male JW rabbits. The protocol: To examine usefulness of combination use of a Rho kinase inhibitor and an α1 blocker, the ocular hypotensive effects were compared by administering either of these drugs alone or both in combination to laboratory animals. (S)-(−)-1-(4-fluoro-5-isoquinolinesulfonyl)-2-methyl-1,4-homopiperazine-hydrochloride dihydrate was dissolved in physiological saline, and the solution was neutralized (pH 6.0) by adding sodium dihydrogenphosphate and sodium hydroxide to prepare a (S)-(−)-1-(4-fluoro-5-isoquinolinesulfonyl)-2-methyl-1,4-homopiperazine solution at a desired concentration. The commercially available “Eril® S Injection” (Asahi Kasei Pharma) was used as it was. The commercially available “Detantol 0.01% Ophthalmic Solution” (Santen Pharmaceutical Co., Ltd.) was used as it was. The ocular hypotensive effect was examined after the combination use of (S)-(−)-1-(4-fluoro-5-isoquinolinesulfonyl)-2-methyl-1,4-homopiperazine and bunazosin. As a control, the ocular hypotensive effect was also examined after the use of bunazosin alone or (S)-(−)-1-(4-fluoro-5-isoquinolinesulfonyl)-2-methyl-1,4-homopiperazine alone. Similarly, the ocular hypotensive effect was examined after the combination use of hexahydro-1-(5-isoquinolinesulfonyl)-1H-1,4-diazepine and bunazosin. […]

With `C[C@@H](N)c1ccc(C(=O)Nc2ccnc3[nH]ccc23)cc1` [Y-39983], in the test on rabbits with normal IOP, the “time after instillation from which IOP is lowered” value was 1 h and the “time of maximum ocular hypotensive effect after instillation” value was 2 to 4 h. In addition, in the test on rabbits with normal IOP (instillation, concentration of 0.10), the “maximum IOP reduction” value was 15 mmHg. With `CCCC(=O)N1CCCN(c2nc(N)c3cc(OC)c(OC)cc3n2)CC1` [bunazosin], the “time after instillation when the ocular hypotensive effect disappeared” value in the test on Japanese white rabbits came out at 5 h. As to `O=S(=O)(c1cccc2cnccc12)N1CCCNCC1` [hexahydro-1-(5-isoquinolinesulfonyl)-1H-1,4-diazepine], the “time after instillation when the ocular hypotensive effect disappeared” value in the test on Japanese white rabbits stood at 5 h.

The record behind these values is patent US20140094451A1, “PREVENTIVE OR REMEDY FOR GLAUCOMA” (Kowa Co., Ltd., priority 2005, published 2014).
